Experimental findings from US20030108872A1, “Genomics-assisted rapid identification of targets” (priority 2000, published 2003) are described below.

Common to all, as to format: cell-based
In experiment [1] the test system is cells in which folA is regulated by PBAD, PLtetO-1, or Plac/ara-1. The experiment in a line: MIC by microbroth dilution in E. coli under-expressing folA. The settings on record: for MIC with decreasing regulator level: PLtetO-1 or Plac/ara-1, regulators L-arabinose, anhydrotetracycline, IPTG, FIG. 3. As for the experimental part: In another example, the wild-type native folA gene was knocked out, and a wild-type copy of the gene folA, which encodes the protein dihydrofolate reductase, was placed under ectopic expression in the yibD locus under regulation by PBAD with the regulator, L-arabinose. Dihydropteroate synthetase, the gene product of […], catalyzes the enzymatic reaction two steps before dihydrofolate reductase in the folate biosynthetic pathway.
(§1) Methods. […] IPTG was added to a final concentration of 0.1 mM and anhydrous-tetracycline was added to a final concentration of 100 ng/ml to the culture media for routine growth of GTC-EC#313 and GTC-EC#346, respectively.
(§2) The specificity and sensitivity of the resultant colonies to added drugs were followed by measuring the minimal inhibitory concentration (MIC) of trimethoprim, sulfamethozasone, phosphomycin and D-cycloserine at varying regulator levels. This was performed according to NCCLS (National Center for Clinical Laboratory Standards) recommendations(NCCLS, 1997, METHODS FOR DILUTION ANTIMICROBIAL SUSCEPTIBILITY TESTS FOR BACTERIA THAT GROW AEROBICALLY, 4th ed.; approved standard. NCCLS document M7-A4. NCCLS, Wayne, Pa.), in 100 μl volume in 96-well format, with serial two-fold dilutions of drug concentration.
On the technique in general: Dilution methods test growth across graded concentrations, often in twofold steps.

The subject of another experiment is E. coli strain WO-153. The experiment in a line: Genome-wide E. coli ORFmer overexpression rescue (OER) assay. The settings on record: for PCR verification of OER clones: expected target gene: liquid microtiter assay, expected targets folA, murA, fabI; for PCR verification of OER clones: expected clone: two plate assay format (disk diffusion, gradient plate). As for the experimental part:
Over expression Rescue Assays. Over expression assays were conducted with the E. coli strain WO-153 described in Table 7. Construction of WO-0153. […] The asmB1 mutation is a G to A transition at position 628 in the 1pxC gene. […] The tolC gene encodes an outer membrane protein that acts as a channel for the acrAB efflux pumps (See for example, Fralick, J. 1996. J. Bacteriol. 178:5801-5805). […] WO-0153 was constructed as follows. The asmB1 mutation was introduced into a DNA fragment containing the 1pxC gene and 1 kb of the 5′ end of the secA gene by site directed mutagenesis of the 1pxC gene using standard methods. A kan^R resistance cassette flanked by FRT sites was introduced 60 bp downstream of the 1pxC gene. The linear DNA construct was introduced into electrocompetent and recombinogenic E. coli KM354 (pTP223) as described by Murphy (See for example, Murphy, 1998, J. Bacteriol. 180: 2063-71). Transformants were selected on LB agar containing kanamycin (35 mcg/ml) and screened for sensitivity to novobiocin (20 mcg/ml). The presence of the asmB1 mutation in clones with the expected phenotype was verified by DNA sequence analysis. The kanR gene flanked by FRT sites was then excised from the 1pxC-secA intergenic region using a previously described method (See for example, Cherepanove, P. P, and Wackernagel, W. 1995. Gene 158: 9-14.). […] 178:5138-5143; Fralick, J. (1996). J. Bacteriol. 178:5801-5805; Fralick, J. A., et al. (1994) J. Bacteriol. 176:6404-6406; and Cherepanove, P. P, et al., (1995) Gene 158:9-14. […] Plasmid library DNA was transformed into WO-153 by electroporation as described above. Cells were collected from transformation plates by scraping and were equalized to an optical density of 1.53 on a Beckman DU650 spectrophotometer([…]). Groups of five libraries were mixed and frozen in LB media plus 10% (vol/vol) glycerol by immersion in a dry-ice/ethanol bath for 5 minutes.
Over-expression assays were performed in liquid media in a microtiter format, in a gradient plate format, or in a disk-diffusion format. The protocol used for the microtiter format was similar to the protocol described above for the MIC assay. Aliquots of 5 library pools spanning the genome were thawed at room temperature and 200 ul of each was inoculated into its own 20 ml of Mueller Hinton media containing ampicillin at 200 ug/ml and anhydrous tetracycline inducer as appropriate. Typically, replicates were performed using a number of final inducer concentrations, ranging from 0 to 100 ng/ml. Following an adequate mixing, 50 ul of inoculated media was mixed with 50 ul of the test antibiotic in Nunc brand 96-well microtiterplates. Typically, each group of five libraries was mixed with a range of concentrations of antibiotic spanning the minimum inhibitory concentration (MIC) of the antibiotic. […] Columns may contain 10 different groups of libraries as well as null vector and no innoculum controls. After mixing inoculum plus media with antibiotic, well contents were mixed by pipetting and incubated at 37° C. for 16 to 20 hours. Optical density at 600 nm was measured using a Molecular Devices SpectraMAX 250 spectrophotometer. […] Contents of wells showing rescue were transferred to LB agar plates containing ampicillin at 100 ug/ml, and were spread to obtain single colonies. Alternately, it is possible to maintain selection for the antibiotic being assayed by including it in the agar plates at this point.
OER Assay using Disk diffusion and Gradient Plate Assay formats. In the Disk diffusion plate format, the 3 inocula (see below) were plated on MHB plates containing ampicillin (100 mcg/ml) and anhydrous tetracycline (a-tet, 100 ng/ml). Two paper disks (6 mm diameter) containing 10×and 20×MIC of the test antiobiotic were placed on the surface of the plate.
(In agar diffusion tests the substance spreads into inoculated agar from a disc or well.)

In experiment [2] the test system is cells in which murA is regulated by PBAD. The experiment in a line: MIC by microbroth dilution in E. coli under-expressing murA. Particulars: for MIC with decreasing regulator (L-arabinose) level: FIG. 4; for sensitivity on under-expression of murA: FIG. 6. The procedure:
The wild-type gene murA, which encodes the enzyme UDP-N-acetylglucosamine enolpyruvate transferase, was knocked out in E. coli, and the gene was placed under ectopic expression in the yibD locus under regulation by PBAD with the regulator, L-arabinose.
as §1, §2

Turning to `COc1cc(Cc2cnc(N)nc2N)cc(OC)c1OC` [trimethoprim], the “MIC with decreasing regulator (L-arabinose) level” value in experiment [1] (FIG. 5) was “decreases”. Moreover, the “MIC with decreasing regulator level” value in experiment [1] is “decreases”. For the same compound, in the experiment on E. coli strain WO-153, the “PCR verification of OER clones: expected target gene” value is recorded as “expected target gene was identifed” and the “PCR verification of OER clones: expected clone” value is given as “expected clone was isolated”. Also, in experiment [2], the “MIC with decreasing regulator (L-arabinose) level” value is recorded as “relatively unchanged” and the “sensitivity on under-expression of murA” value was “not sensitive”.
As for `C[C@@H]1O[C@@H]1P(=O)(O)O` [phosphomycin], in experiment [1], the “MIC with decreasing regulator level” value is listed as “relatively unchanged”. In addition, in the experiment with E. coli strain WO-153, the “PCR verification of OER clones: expected target gene” value is given as “expected target gene was identifed” and the “PCR verification of OER clones: expected clone” value was “expected clone was isolated”. In experiment [2], the “MIC with decreasing regulator (L-arabinose) level” value is “decreases” and the “sensitivity on under-expression of murA” value is reported as “hypersensitivity”.
